# Where two headings read alike, the source gives them in different places.
# Key:
# in vitro = conditions: plasma, pH 7.4
# Pharmacokinetics = conditions: both, rhesus monkey, sc
# [1] = Plasma protein binding by equilibrium dialysis
# [2] = rhesus monkey, in vivo, sc
# human Pgp (MDCK-MDR1) = human Pgp (MDCK-MDR1) (Homo sapiens, UniProt P08183); assay: Bidirectional transport across MDR1-MDCK cell monolayers; assay type: in vitro ADME; conditions: CNO 5 μM
# BCRP (MDCK-BCRP) = target: T1, BCRP (MDCK-BCRP) (Homo sapiens, UniProt Q9UNQ0); assay: Bidirectional transport across BCRP-MDCK cell monolayers; assay type: in vitro ADME; conditions: MDCK-BCRP monolayer; CNO 5 μM; 120 min; no inhibitor
# T1 sequence (Q9UNQ0 1-655): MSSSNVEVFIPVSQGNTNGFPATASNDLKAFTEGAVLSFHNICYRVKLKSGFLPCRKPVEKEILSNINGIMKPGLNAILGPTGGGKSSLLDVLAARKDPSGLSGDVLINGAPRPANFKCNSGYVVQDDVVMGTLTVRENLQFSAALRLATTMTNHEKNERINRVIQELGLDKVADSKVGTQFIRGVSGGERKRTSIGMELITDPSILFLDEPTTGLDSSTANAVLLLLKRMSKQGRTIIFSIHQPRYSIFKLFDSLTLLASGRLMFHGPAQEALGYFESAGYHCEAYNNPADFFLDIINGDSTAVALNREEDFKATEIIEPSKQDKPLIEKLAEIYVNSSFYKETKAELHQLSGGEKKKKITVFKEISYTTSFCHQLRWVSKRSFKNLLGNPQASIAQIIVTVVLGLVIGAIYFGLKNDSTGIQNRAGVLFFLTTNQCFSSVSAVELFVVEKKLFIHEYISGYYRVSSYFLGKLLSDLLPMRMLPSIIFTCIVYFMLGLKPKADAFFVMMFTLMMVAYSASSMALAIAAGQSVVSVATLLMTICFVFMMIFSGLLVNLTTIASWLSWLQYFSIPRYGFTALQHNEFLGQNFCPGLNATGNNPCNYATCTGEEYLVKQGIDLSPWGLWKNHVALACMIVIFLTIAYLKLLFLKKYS
# [3] = CNO 10 mg/kg IM, monkeys; cited from earlier work
# [4] = MDCK-Pgp monolayer, 120 min, no inhibitor
# Chain of human Pgp (MDCK-MDR1) (P08183 whole entry): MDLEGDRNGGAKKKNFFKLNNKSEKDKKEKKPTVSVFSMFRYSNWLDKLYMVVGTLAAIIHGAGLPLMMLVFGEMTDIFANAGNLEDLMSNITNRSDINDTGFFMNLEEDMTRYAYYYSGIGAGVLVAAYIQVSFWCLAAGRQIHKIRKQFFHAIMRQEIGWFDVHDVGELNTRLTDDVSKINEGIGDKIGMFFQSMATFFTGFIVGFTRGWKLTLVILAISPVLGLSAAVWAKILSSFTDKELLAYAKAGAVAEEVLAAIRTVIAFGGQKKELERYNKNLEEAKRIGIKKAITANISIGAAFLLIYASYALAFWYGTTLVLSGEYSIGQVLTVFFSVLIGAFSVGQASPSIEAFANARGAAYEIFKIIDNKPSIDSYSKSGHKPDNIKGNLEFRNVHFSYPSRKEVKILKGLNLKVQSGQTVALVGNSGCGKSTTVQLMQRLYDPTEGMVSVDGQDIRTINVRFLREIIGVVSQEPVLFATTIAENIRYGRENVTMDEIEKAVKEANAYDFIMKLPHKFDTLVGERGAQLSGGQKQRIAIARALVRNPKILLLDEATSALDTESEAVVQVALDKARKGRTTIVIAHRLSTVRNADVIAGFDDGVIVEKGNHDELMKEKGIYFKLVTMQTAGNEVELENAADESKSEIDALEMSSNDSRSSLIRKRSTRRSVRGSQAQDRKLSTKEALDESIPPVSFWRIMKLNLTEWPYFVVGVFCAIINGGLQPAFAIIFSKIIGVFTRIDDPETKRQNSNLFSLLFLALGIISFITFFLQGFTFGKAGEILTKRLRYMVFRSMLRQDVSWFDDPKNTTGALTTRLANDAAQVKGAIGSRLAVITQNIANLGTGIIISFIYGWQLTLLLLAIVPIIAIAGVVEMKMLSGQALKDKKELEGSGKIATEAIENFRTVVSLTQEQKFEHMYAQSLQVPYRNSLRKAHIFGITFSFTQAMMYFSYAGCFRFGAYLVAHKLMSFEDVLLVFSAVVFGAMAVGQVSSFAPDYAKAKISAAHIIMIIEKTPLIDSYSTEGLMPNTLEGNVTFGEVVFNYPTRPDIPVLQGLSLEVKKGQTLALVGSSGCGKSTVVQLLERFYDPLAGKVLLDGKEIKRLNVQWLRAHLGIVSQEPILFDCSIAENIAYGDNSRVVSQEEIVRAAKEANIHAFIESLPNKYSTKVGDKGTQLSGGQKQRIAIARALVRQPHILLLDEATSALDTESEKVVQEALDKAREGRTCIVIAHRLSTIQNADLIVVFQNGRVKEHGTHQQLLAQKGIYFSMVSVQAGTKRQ
Compound,"fraction unbound at 4 h, 1 μM (in vitro)","Tmax (Pharmacokinetics; CSF, 3 mg/kg)","Tmax (Pharmacokinetics; CSF, 10 mg/kg)","Tmax (Pharmacokinetics; plasma, 3 mg/kg)","fraction unbound at 4 h, 1 μM ([1]; pH 7.4)",AUC at 3 mg/kg as share of AUC at 10 mg/kg [2],AUC ([2]; 3 mg/kg),AUC ([2]; 10 mg/kg),Cmax ([2]; 10 mg/kg),Tmax ([2]; 10 mg/kg),A-B permeability (Papp) (human Pgp (MDCK-MDR1); [4]),B-A permeability (Papp) (human Pgp (MDCK-MDR1); [4]),Pgp substrate assessment (human Pgp (MDCK-MDR1); MDCK-Pgp),A-B permeability (Papp) (BCRP (MDCK-BCRP)),B-A permeability (Papp) (BCRP (MDCK-BCRP)),Tmax in CSF [3],average concentration in CSF [3],"fu (fraction unbound), PPB ([1]; 1 μM, 4 h at 37 °C, equilibrium dialysis)"
Clc1ccc2c(c1)N=C(N1CCNCC1)c1ccccc1N2 [N-desmethylclozapine],0.11,24 h,24 h,24 h,–,–,–,–,–,–,–,–,–,–,–,–,–,–
CN1CCN(C2=Nc3cc(Cl)ccc3Nc3ccccc32)CC1 [clozapine],–,2.67 h,2.67 h,2.67 h,0.05,–,–,–,–,–,–,–,–,–,–,–,–,–
clozapine-N-oxide [CNO],–,–,–,–,–,approximately 65%,519 ng·h/mL,795 ng·h/mL,7 µM,90 min ^b,0.05 ×10⁻⁶ cm/s,1 ×10⁻⁶ cm/s,substrate of Pgp,0.07 ×10⁻⁶ cm/s,0.21 ×10⁻⁶ cm/s,1 h,9 ng/mL,0.43
